The subject of one assay is Ha-Ras. Description: Ha-Ras / Ki-Ras protein levels in primary fibroblasts (immunoprecipitation, immunoblot, immunofluorescence, FACS). It counts as cell-based, human. Conditions: for effect on Ha-Ras induction by PDGF / effect on Ha Ras levels: primary fibroblasts. The protocol: Ras proteins were immunoprecipitated from cultured fibroblasts with polyclonal anti pan Ras antibody (Santa Cruz Biotechnology, Santa Cruz, Calif.) following recommended procedures from the manufacturer.
Fibroblasts, cultured on Lab-Tek chamber glass slides (Nalge-Nunc, Ill., USA) and starved 48 h before stimulation or addition of inhibitors, were fixed 4% para-formaldheide, permeabilized by 0.1% Triton-X, and stained with a monoclonal antibody against Ha-Ras and then with a tetramethylrhodamine-isothiocyanate (TRITC) conjugated secondary antibody (Molecular Probes, NL). Slides were mounted with Vectarshield (H-100; Vector, Burlingame, Calif.) and examined using a BioRad (Hemel Hempstead, UK) microradiance confocal laser-scanning microscope equipped with argon and helium/neon lasers. Acquired images were analysed using the Laser Sharp Processing BioRad software (version 3.2). All images from different slides condition were acquired in double-blinded fashion.
Cells were grown to semiconfluency in 60 mm culture dishes. After trypsin detachment, 5×10^5 cells were suspended in 1 ml of phosphate buffered saline (PBS) and fixed overnight with 1% formaldehyde at room temperature. Next, cells were permeabilized with 0.1% Triton×100 for 40 min at 4° C., washed 4 times with 2 ml of PBS containing 2% FBS, 0.01% NaN3, 0.1% Triton×100 (buffer A), and incubated for 45 min at 4° C. with 1:50 dilution of monoclonal and polyclonal anti HaRas antibodies (Santa Cruz Biotechnology, Santa Cruz, Calif., USA). The cells were then washed twice with the same buffer and incubated for 45 min at 4° C. with Cy2-conjugated anti-mouse IgG antibodies (Amersham Pharmacia Biotech, Milano, Italia) at 1:50 dilution. Control cells were incubated with Cy2-conjugated anti mouse IgG antibodies alone. After two washes in buffer A, cells were resuspended in PBS and analyzed by flow cytometry using FACScan (BD, Heidelberg, Germany) and WinMDI software.

The test system of a further assay is normal human fibroblasts. In words: ROS (DCF fluorescence) in normal human fibroblasts. It is filed as cell-based. Conditions: for effect on ROS induction by SSc IgG in normal fibroblasts: FIG. 2A, pre-incubation for 2 hours (AG1478 2 μM, FT-277 20 μM, PD98059 40 μM). How it is done:
(§1) Fluorimetric determination of intracellular ROS generated by adherent fibroblasts was estimated after loading the cells with 2′,7′-dichlorofluorescein diacetate (DCFH-DA 10 μM, Molecular Probes, PoortGebouw, The Nederlands) for 15 min at 37° C. The DCF fluorescence intensity was measured by a CytoFluor plate reader (PerkinElmer, Wallac, Finland) (excitation wavelength, 485 nm; emission wavelength, 530 nm) (8). Ten measurements were made in each single well from ten distinct points and the values averaged. Each IgG sample was run in duplicate and the average has been recorded. The results are expressed as DCF fluorescence intensity calculated subtracting from the DCF fluorescence intensity of the test IgG the DCF fluorescence intensity of a negative control obtained by cell cultured without IgG. The intra-plate and the inter-plate coefficient of variation was less than 3%. The samples were recorded as positive if the SI was greater than the mean plus three standard deviations of the normal group.
In selected experiments ROS generation was evaluated after the addition of PDGF receptor tyrosine kinase inhibitor (AG 1296; 2 μM for 2 hours), Epidermal growth factor (EGF) receptor tyrosine kinase inhibitor (AG 1478; 2 μM for 2 hours), a chemical inhibitor of ERK 1/2 signalling (PD 98059; 40 μM for 2 hours), and a farnesyl protein transferase inhibitor to block Ras farnesylation (FTI-277; 20 μM for 2 hours). AG 1296, AG 1478, PD 98059 and FTI-277 were obtained from Calbiochem (San Diego, Calif.).
Fluorimetric determination of intracellular ROS generated by fibroblasts was estimated after loading the cells with DCFH-DA (10 μM) for 15 min at 37° C. before assessing DCF fluorescence level (15). Superoxide anion release was estimated using the superoxide dismutase-inhibitable cytochrome c reduction (12). H2O2 release from fibroblasts into the overlying medium was assayed using a modification of the method of Valletta and Berton (1987) (16). Oxidative activity imaging in living, transfected cells was evaluated as described (12, 17).

Assay [1] has as its target T1, PDGFR α subunit expressed by Fα cells (Homo sapiens, UniProt P16234).
T1 construct: expressed in transfected cells; host or cells: mouse embryo fibroblasts from PDGF receptor knock-out embryos (F-/-) infected with PDGFR α (Fα cells)
Description: Bio-assay for anti PDGFR autoantibodies: ROS production (DCF fluorescence) in Fα cells. It counts as cell-based, mouse. Conditions: pre-incubation 2 μM for 2 hours. The protocol:
Patients and control serum samples were tested for the presence of PDGFR activating autoantibodies in a functional bioassay based on the production of ROS by mouse embryo fibroblasts infected with PDGFR α and/or β subunits and exposed in vitro to immunopurified IgG. Control cells were F−/− cells devoid of PDGFR. In brief, cells were plated in duplicate at a density of 30,000 cells in 1.83-cm^2 wells and incubated for 24 hours at 37° C. in 0.2 percent fetal calf serum. The cells were then washed with phosphate-buffered saline and incubated with a pre-determined amount of control or patient IgG for 15 minutes at 37° C. before ROS production determination.
as §1, with “Ten measurements were made in each single well from ten distinct points and the values averaged.” left out, “The intra-plate and the inter-plate coefficient of variation was less than 3%. The samples were recorded as positive if the SI was greater than the mean plus three standard deviations of the normal group.” left out

For a further assay, the system named is ERK1/2. Description: P-ERK1/2 immunoblot in primary fibroblasts. It is filed as cell-based, human. Conditions: for effect on ERK1/2 activated by PDGF: NAC 20 mM 5 h, DPI 20 μM 1 h, FIG. 5E. How it is done: Cell culture plates were lysed with 0.3 ml of cold RIPA buffer (1×PBS, 1% Nonidet P-40, 0.5% sodium deoxycholate, 0.1% SDS, 2 mM sodium orthovanadate, 2 μg/ml aprotinin, 1 mM PMSF) and processed for immunoblotting as described (8).
Cell culture plates were lysed with 0.3 ml of cold RIPA buffer (1×PBS, 1% Nonidet P-40, 0.5% sodium deoxycholate, 0.1% SDS, 2 mM sodium orthovanadate, 2 μg/ml aprotinin, 1 mM PMSF) and processed as described (14).
(In western blotting, separated proteins are transferred to a membrane and probed.)

The next assay has as its system SSc fibroblasts. Description: Oxidative stress-induced apoptosis in scleroderma fibroblasts. It is filed as cell-based, human. Conditions: H2O2, pre-treatment, FIG. 8C. The protocol:
Normal and scleroderma fibroblasts were grown to 80-90% confluence and treated for 2 h with different concentrations of H2O2. When needed, cells were preincubated 30 min with PD 98059 (40 μmol/L).
(§2) Six hours after the removal of the stimulus, apoptosis was detected by FACS analysis using annexin V-Cy3 (Clontech, Palo Alto Calif.). Statistical analysis

The test system of assay [2] is Umbilical vein endothelial cells. In words: Apoptosis of umbilical vein endothelial cells (annexin V FACS). It counts as cell-based. Conditions: overnight; SSc IgG 200 μg/ml, PDGF 15 ng/ml; FIG. 3C. How it is done:
Endothelial cells will be isolated from umbilical cord. Cells were stimulated with SSc IgG (200 μg/ml), normal IgG (200 μg/ml) and PDGF (15 ng/ml) for 12 hours in the presence and in the absence of inhibitors of PDGFR and EGFR tyrosine kinase activity.
as §2

The target of another assay is T2, PDGFR (Homo sapiens, UniProt P09619).
T2 construct: endogenous in cells; host or cells: normal human fibroblasts
Description: Tyrosine phosphorylation of the PDGFR in normal fibroblasts. It counts as cell-based. Conditions: FIG. 2D and data not shown. How it is done: Panel D. Normal human fibroblasts were stimulated with SSc IgG (200 μg/ml for 15 min), PDGF (15 ng/ml for 15 min) or grown in FCS 0.2%. Cell lysates were immunoprecipitated with a polyclonal antibody against PDGFR (subunit β) and the immunoblots were developed with a specific antibody against phosphorylated tyrosine.

The next assay deals with PDGF receptor. Description: PDGF receptor level in primary fibroblast extracts (immunoblot). It is filed as cell-based, human. Conditions: independently on ERK1/2 activation; FIG. 5D. How it is done:
D. PDGF induction of Ha-Ras is mediated by ERK1/2. Fibroblasts, incubated in 0.2% FCS for 48 h, were treated with the MEK inhibitors, PD98059 (40 μM) 2 h, before the treatment with PDGF (15 ng/ml).

[3] abbreviates: 90 min in the presence of genistein, data not shown.

Read-outs that look alike come from different tables or passages of the source. Peptide text beside a SMILES is read from it. * marks the point of attachment. Cbz = O=C(OCc1ccccc1)*

T2 sequence (P09619 33-1106): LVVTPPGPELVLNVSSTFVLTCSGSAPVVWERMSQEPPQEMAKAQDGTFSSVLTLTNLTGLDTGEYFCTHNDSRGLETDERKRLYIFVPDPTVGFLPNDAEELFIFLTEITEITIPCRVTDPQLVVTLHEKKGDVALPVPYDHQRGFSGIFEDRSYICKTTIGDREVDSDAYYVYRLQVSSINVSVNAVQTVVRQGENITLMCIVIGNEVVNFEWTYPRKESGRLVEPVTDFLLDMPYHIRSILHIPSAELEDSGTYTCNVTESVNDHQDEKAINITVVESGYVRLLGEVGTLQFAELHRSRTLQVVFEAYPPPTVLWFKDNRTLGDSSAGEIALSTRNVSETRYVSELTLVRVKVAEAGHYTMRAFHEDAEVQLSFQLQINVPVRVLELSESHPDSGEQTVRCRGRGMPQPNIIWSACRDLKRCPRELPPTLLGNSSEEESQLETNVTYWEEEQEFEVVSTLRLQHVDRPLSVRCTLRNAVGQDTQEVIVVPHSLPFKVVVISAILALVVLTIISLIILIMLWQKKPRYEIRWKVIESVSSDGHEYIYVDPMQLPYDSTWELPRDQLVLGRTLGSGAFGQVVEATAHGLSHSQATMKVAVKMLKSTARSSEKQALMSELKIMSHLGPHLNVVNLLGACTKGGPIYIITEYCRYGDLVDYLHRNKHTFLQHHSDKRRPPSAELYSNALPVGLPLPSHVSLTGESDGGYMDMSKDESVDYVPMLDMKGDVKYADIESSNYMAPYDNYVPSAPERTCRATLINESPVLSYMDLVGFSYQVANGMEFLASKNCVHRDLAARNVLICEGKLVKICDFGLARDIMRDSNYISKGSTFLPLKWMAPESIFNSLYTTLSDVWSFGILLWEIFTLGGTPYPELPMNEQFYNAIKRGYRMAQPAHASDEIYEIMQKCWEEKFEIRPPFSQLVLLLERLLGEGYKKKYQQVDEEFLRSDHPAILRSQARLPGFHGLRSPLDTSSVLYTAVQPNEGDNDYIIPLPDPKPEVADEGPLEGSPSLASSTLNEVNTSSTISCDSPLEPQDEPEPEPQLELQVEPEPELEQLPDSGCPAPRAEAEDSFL
T1 sequence (P16234 24-1089): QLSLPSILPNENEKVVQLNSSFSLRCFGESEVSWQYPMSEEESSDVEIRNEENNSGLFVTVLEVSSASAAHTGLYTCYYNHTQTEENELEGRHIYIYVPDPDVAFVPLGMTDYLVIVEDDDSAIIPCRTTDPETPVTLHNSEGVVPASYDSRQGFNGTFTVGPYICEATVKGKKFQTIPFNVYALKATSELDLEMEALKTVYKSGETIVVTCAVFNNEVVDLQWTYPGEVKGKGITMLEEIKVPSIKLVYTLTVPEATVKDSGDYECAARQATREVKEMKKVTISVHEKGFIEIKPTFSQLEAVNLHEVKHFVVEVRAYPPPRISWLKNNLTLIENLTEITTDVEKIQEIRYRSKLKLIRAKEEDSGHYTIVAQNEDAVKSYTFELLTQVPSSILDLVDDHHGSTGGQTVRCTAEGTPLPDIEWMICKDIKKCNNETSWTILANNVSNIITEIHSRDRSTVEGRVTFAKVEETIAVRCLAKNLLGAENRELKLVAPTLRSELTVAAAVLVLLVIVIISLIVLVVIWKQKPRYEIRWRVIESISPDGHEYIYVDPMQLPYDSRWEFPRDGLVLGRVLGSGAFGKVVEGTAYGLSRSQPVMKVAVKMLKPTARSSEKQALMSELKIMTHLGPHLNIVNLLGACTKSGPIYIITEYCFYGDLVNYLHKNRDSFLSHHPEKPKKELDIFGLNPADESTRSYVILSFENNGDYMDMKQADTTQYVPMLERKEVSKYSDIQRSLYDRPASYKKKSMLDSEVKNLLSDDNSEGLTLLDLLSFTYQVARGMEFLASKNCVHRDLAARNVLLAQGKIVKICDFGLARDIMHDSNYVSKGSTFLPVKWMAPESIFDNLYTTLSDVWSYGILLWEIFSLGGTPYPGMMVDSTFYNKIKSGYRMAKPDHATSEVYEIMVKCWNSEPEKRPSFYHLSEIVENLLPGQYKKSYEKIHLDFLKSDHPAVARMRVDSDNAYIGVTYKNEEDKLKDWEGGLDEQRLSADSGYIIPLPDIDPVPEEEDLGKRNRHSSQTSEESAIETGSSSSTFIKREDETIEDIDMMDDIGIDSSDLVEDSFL

Regarding `COc1cc2ncnc(Nc3cccc(Cl)c3)c2cc1OC` [AG1478], the “effect on Ha-Ras induced by SSc IgG” value in the assay on Ha-Ras (normal human fibroblasts, FIG. 2B, inhibitor for 2 h) is recorded as “slight inhibition”. Further, the “effect on ROS induction by SSc IgG in normal fibroblasts” value (from here on “effect on ROS induction by SSc IgG”) in the assay on normal human fibroblasts is recorded as “prevented”.
On to `COc1cc2ncc(-c3ccccc3)nc2cc1OC` [AG 1296], for which, in assay [1], the “effect on ROS induced in Fα cells incubated with SSc IgG” value is “inhibited”.
On to `c1ccc2c(c1)[I+]c1ccccc1-2` [DPI, diphenylene iodonium], for which the “effect on Ha-Ras induction by PDGF” value in the assay with Ha-Ras (PDGF 15 ng/ml) is listed as “significantly inhibited”. In addition, the “effect on ERK1/2 activated by PDGF” value with ERK1/2 is on record as “sensitive”.
As for `COC(=O)[C@H](CCSC)NC(=O)c1ccc(NC[C@@H](N)CS)cc1-c1ccccc1` [FTI-277], in the assay on normal human fibroblasts, the “effect on ROS induction by SSc IgG” value was “prevented”.
For `OO` [H2O2], in the assay on Ha-Ras (FIG. 6D), the “Ha Ras induction in the presence of genistein” value is “powerful inducer”.
In the case of `CC(C)C[C@@H](C=O)NC(=O)[C@H](CC(C)C)NC(=O)[C@H](CC(C)C)NC(=O)OCc1ccccc1` [MG132] (Cbz-Leu-Leu-Leu-aldehyde), in the assay on Ha-Ras (FIG. 6E), the “effect on Ha Ras when administered with PDGF or H2O2” value is “not additive” and the “effect on Ha Ras levels” value is “induced”.
In the case of `CC(=O)N[C@@H](CS)C(=O)O` [NAC, N-acetyl-L-cysteine], in the assay on Ha-Ras (PDGF 15 ng/ml), the “effect on Ha-Ras induction by PDGF” value is listed as “significantly inhibited”. The “effect on ERK1/2 activated by PDGF” value in the assay on ERK1/2 is recorded as “sensitive”.
On to `COc1cccc(-c2cc(=O)c3ccccc3o2)c1N` [PD98059], for which the “effect on induction of Ha-Ras by H2O2” value with Ha-Ras (PD 98059 2 h, U0126 15 min incubation, FIGS. 6A, 6B) is listed as “abolished”. In addition, the “effect on Ha-Ras induction by PDGF” value in the assay with Ha-Ras (PDGF 15 ng/ml) was “inhibited”. Also, the “effect on ROS induction by SSc IgG” value in the assay on normal human fibroblasts is on record as “prevented”. Besides, the “effect on oxidative stress-induced apoptosis” value in the assay with SSc fibroblasts is “inhibited”.
Turning to `N#CC(=C(/N)Sc1ccccc1N)/C(C#N)=C(\N)Sc1ccccc1N` [U0126], the “effect on induction of Ha-Ras by H2O2” value with Ha-Ras is listed as “abolished”.
For the compound `C[C@@H]1C[C@@H]([C@H](O)CC2CC(=O)NC(=O)C2)C(=O)[C@@H](C)C1` [cycloheximide], in the assay on Ha-Ras (PDGF 15 ng/ml), the “effect on Ha-Ras induction by PDGF” value was “did not prevent”.
On to `O=c1c(-c2ccc(O)cc2)coc2cc(O)cc(O)c12` [genistein], for which the “effect on Ha-Ras induced by H2O2, longer incubation” value in the assay with Ha-Ras (setting [3]) is reported as “inhibited”. Also, the “effect on Ha-Ras induction by PDGF” value with Ha-Ras (PDGF 15 ng/ml) is listed as “inhibited”. In addition, the “effect on ERK1/2 induced by H2O2, longer incubation” value with ERK1/2 (setting [3]) was “inhibited”.
Turning to `CC[C@@]1([C@@H]2O[C@@H]([C@H]3O[C@@](O)(CO)[C@H](C)C[C@@H]3C)C[C@@H]2C)CC[C@H]([C@]2(C)CC[C@]3(C[C@H](O)[C@@H](C)[C@@H]([C@@H](C)[C@@H](OC)[C@H](C)C(=O)O)O3)O2)O1` [monensin], the “effect on Ha Ras levels” value with Ha-Ras (FIG. 6E) is reported as “no effect”.
Regarding PDGF, the “half-life of Ha-Ras protein induced by PDGF” value in the assay with Ha-Ras (estimated from several experiments) was “approximately 40 min”. Moreover, the Ki-Ras decay time on Ha-Ras (of PDGF stimulation, FIG. 4A) came to 3 h. Further, in the assay on Ha-Ras (primary human fibroblasts, growth factor still present), the “time after stimulation at which Ha-Ras decreased to the initial levels” value was found to be 120 min. Moreover, the “PDGF stimulation time sufficient to induce Ha-Ras protein” value in the assay with Ha-Ras (quiescent primary human fibroblasts, PDGF 15 ng/ml) is on record as 15 min. The “duration of induced ROS (return to baseline)” value in the assay on normal human fibroblasts (discussion, cells not given) was 15 to 30 min. In addition, the “induction of endothelial cell apoptosis” value in assay [2] is “unable to induce apoptosis”. The “duration of PDGFR tyrosine phosphorylation” value on PDGFR was 15 min. Moreover, the PDGF receptor level entry in the assay with PDGF receptor is “down-regulated”.
cyclodextrin: the “effect on Ha-Ras induction by PDGF” value in the assay on Ha-Ras (PDGF 15 ng/ml) is recorded as “did not abolish”.

These data come from patent publication US20120252037A1, “STIMULATORY AUTO-ANTIBODIES TO THE PDGF RECEPTOR AS PATHOLOGY MARKER AND THERAPEUTIC TARGET” (priority 2005, published 2012).
